Read-outs that look alike come from different tables or passages of the source.
Columns and labels:
[1] = system: MCF-7 cells; test: MTT cytotoxicity assay, MCF-7 cells; type: cell-based; settings: Homo sapiens, triplicate; for inhibition at 100 µM: MCF7, 100 µM, 72 h; for IC50: MCF7, 72 h culture, 1-100 µM
[2] = system: Jurkat cells; test: MTT cytotoxicity assay, Jurkat cells; type: cell-based, human; settings: for IC50: Homo sapiens, Jurkat, MTT
Protocol: A549 and MCF-7 human cancer cell lines were cultured in Dulbecco’s Modified Eagle’s Medium (DMEM) (Wako Pure Chemical Industries, Osaka, Japan) supplemented with 10% fetal bovine serum (FBS) (Equitech-Bio, Kerrville, TX, USA). […] All media were supplemented with 89 μg/mL of streptomycin (Meiji Seika Pharma, Tokyo, Japan). […] Cancer cells and PBMCs were seeded into 24-well and 96-well microtiter tissue culture plates (Iwaki, Asahi Glass Co., Chiba, Japan) at densities of 4 × 10^4 cells/mL and 5 × 10^5 cells/mL, respectively, and incubated for 72 h prior to drug treatment. The optimal seeding density for cytotoxicity assays was determined through preliminary testing. […] The cellular reduction MTT (Dojindo Molecular Technologies, Kumamoto, Japan) was assessed following established protocols from the literature, with slight modifications.

[3] = system: A549 cells; test: MTT cytotoxicity assay, A549 cells; type: cell-based, human; settings: triplicate; for IC50: Homo sapiens, A549, 72 h culture, 1-100 µM; for reduction of A549 cell viability: 100 µM, 72 h
[4] = system: MCF-7 cells; design: method as in ref 31 (1), 32 (2), 33 (3), 35 (6), 37 (8), 38 (9), 39 (10), 11 (11); settings: Figure 3; ref 31 (1), 32 (2), 33 (3), 35 (6), 37 (8), 38 (9), 39 (10), 11 (11); cited from earlier work
[5] = system: EGFR; settings: cited from earlier work; for IC50: Figure 3, read-out: EGFR inhibition: IC50; for EGFR inhibition: Figure 3, concentration not given, ref 36 (7), 11 (11)
[6] = system: A549 cells; design: method as in ref 33 (3), 34 (4, 5), 36 (7), 38 (9), 39 (10), 11 (11); settings: Figure 3; ref 33 (3), 34 (4, 5), 36 (7), 38 (9), 39 (10), 11 (11); cited from earlier work
[7] = system: PBMCs; test: MTT cytotoxicity assay, PBMCs (healthy); type: cell-based; settings: PBMC
Protocol: A549 and MCF-7 human cancer cell lines were cultured in Dulbecco’s Modified Eagle’s Medium (DMEM) (Wako Pure Chemical Industries, Osaka, Japan) supplemented with 10% fetal bovine serum (FBS) (Equitech-Bio, Kerrville, TX, USA). Jurkat cells, derived from human leukemia, were maintained in RPMI 1640 medium (Wako Pure Chemical Industries) with 10% FBS. PBMCs (Precision Bioservices, Frederick, MD, USA) were cultured in RPMI 1640 medium supplemented with 10% human AB serum (HS) (Gemini, Woodland, CA, USA). All media were supplemented with 89 μg/mL of streptomycin (Meiji Seika Pharma, Tokyo, Japan). Cells were incubated at 37 °C in a humidified atmosphere containing 95% air and 5% CO2. Cancer cells and PBMCs were seeded into 24-well and 96-well microtiter tissue culture plates (Iwaki, Asahi Glass Co., Chiba, Japan) at densities of 4 × 10^4 cells/mL and 5 × 10^5 cells/mL, respectively, and incubated for 72 h prior to drug treatment. The optimal seeding density for cytotoxicity assays was determined through preliminary testing. […] The cellular reduction MTT (Dojindo Molecular Technologies, Kumamoto, Japan) was assessed following established protocols from the literature, with slight modifications.

[8] = ref 31 (1), 33 (3), 35 (6), 37 (8), 38 (9), 39 (10)

Cc1ccc(C2=NN(c3nc(-c4ccccc4)cs3)C(c3cnc(-c4ccc(Cl)cc4)nc3)C2)cc1 (centres unmarked) [BP-1, 1-(4-Phenylthiazol-2-yl)-3-(4-methylphenyl)-5-(2-(4-chlorophenyl)pyrimidin-5-yl)-2-pyrazoline]
inhibition at 100 µM [1]: 27 to 53%
IC50 [1]: 91.6 ± 10.2 µM
IC50 [2]: > 100 µM
IC50 [3]: > 100 µM

Cc1ccc(C2=NN(c3nc(-c4ccc([N+](=O)[O-])cc4)cs3)C(c3cnc(-c4ccc(Cl)cc4)nc3)C2)cc1 (centres unmarked) [BP-2, 1-(4-(4-Nitrophenyl)thiazol-2-yl)-3-(4-methylphenyl)-5-(2-(4-chlorophenyl)pyrimidin-5-yl)-2-pyrazoline]
inhibition at 100 µM [1]: 27 to 53%

Cc1ccc(C2=NN(c3nc(-c4ccc(F)cc4)cs3)C(c3cnc(-c4ccc(Cl)cc4)nc3)C2)cc1 (centres unmarked) [BP-3, 1-(4-(4-Fluorophenyl)thiazol-2-yl)-3-(4-methylphenyl)-5-(2-(4-chlorophenyl)pyrimidin-5-yl)-2-pyrazoline]
inhibition at 100 µM [1]: 27 to 53%

Cc1ccc(C2=NN(c3nc(-c4ccc(Cl)cc4)cs3)C(c3cnc(-c4ccc(Cl)cc4)nc3)C2)cc1 (centres unmarked) [BP-4, 1-(4-(4-Chlorophenyl)thiazol-2-yl)-3-(4-methylphenyl)-5-(2-(4-chlorophenyl)pyrimidin-5-yl)-2-pyrazoline]
inhibition at 100 µM [1]: 27 to 53%

Cc1ccc(C2=NN(c3nc(-c4ccc(Br)cc4)cs3)C(c3cnc(-c4ccc(Cl)cc4)nc3)C2)cc1 (centres unmarked) [BP-5, 1-(4-(4-Bromophenyl)thiazol-2-yl)-3-(4-methylphenyl)-5-(2-(4-chlorophenyl)pyrimidin-5-yl)-2-pyrazoline]
inhibition at 100 µM [1]: 27 to 53%
reduction of A549 cell viability [3]: 21%

Cc1ccc(C2=NN(c3nc(-c4ccc(C#N)cc4)cs3)C(c3cnc(-c4ccc(Cl)cc4)nc3)C2)cc1 (centres unmarked) [BP-6, 1-(4-(4-Cyanophenyl)thiazol-2-yl)-3-(4-methylphenyl)-5-(2-(4-chlorophenyl)pyrimidin-5-yl)-2-pyrazoline]
inhibition at 100 µM [1]: 27 to 53%

Cc1ccc(C2=NN(c3nc(-c4ccc(C(F)(F)F)cc4)cs3)C(c3cnc(-c4ccc(Cl)cc4)nc3)C2)cc1 (centres unmarked) [BP-7, 1-(4-(4-Trifluoromethylphenyl)thiazol-2-yl)-3-(4-methylphenyl)-5-(2-(4-chlorophenyl)pyrimidin-5-yl)-2-pyrazoline]
inhibition at 100 µM [1]: 27 to 53%
reduction of A549 cell viability [3]: 33%

COc1ccc(C2=NN(c3nc(-c4ccccc4)cs3)C(c3cnc(-c4ccc(Cl)cc4)nc3)C2)cc1 (centres unmarked) [BP-8, 1-(4-Phenylthiazol-2-yl)-3-(4-methoxyphenyl)-5-(2-(4-chlorophenyl)pyrimidin-5-yl)-2-pyrazoline]
inhibition at 100 µM [1]: 27 to 53%

COc1ccc(C2=NN(c3nc(-c4ccc([N+](=O)[O-])cc4)cs3)C(c3cnc(-c4ccc(Cl)cc4)nc3)C2)cc1 (centres unmarked) [BP-9, 1-(4-(4-Nitrophenyl)thiazol-2-yl)-3-(4-methoxyphenyl)-5-(2-(4-chlorophenyl)pyrimidin-5-yl)-2-pyrazoline]
inhibition at 100 µM [1]: 27 to 53%

COc1ccc(C2=NN(c3nc(-c4ccc(F)cc4)cs3)C(c3cnc(-c4ccc(Cl)cc4)nc3)C2)cc1 (centres unmarked) [BP-10, 1-(4-(4-Fluorophenyl)thiazol-2-yl)-3-(4-methoxyphenyl)-5-(2-(4-chlorophenyl)pyrimidin-5-yl)-2-pyrazoline]
inhibition at 100 µM [1]: 27 to 53%
IC50 [1]: 76 ± 9.91 µM
IC50 [2]: > 100 µM
IC50 [3]: > 100 µM

COc1ccc(C2=NN(c3nc(-c4ccc(Br)cc4)cs3)C(c3cnc(-c4ccc(Cl)cc4)nc3)C2)cc1 (centres unmarked) [BP-12, 1-(4-(4-Bromophenyl)thiazol-2-yl)-3-(4-methoxyphenyl)-5-(2-(4-chlorophenyl)pyrimidin-5-yl)-2-pyrazoline]
inhibition at 100 µM [1]: 27 to 53%

COc1ccc(C2=NN(c3nc(-c4ccc(C#N)cc4)cs3)C(c3cnc(-c4ccc(Cl)cc4)nc3)C2)cc1 (centres unmarked) [BP-13, 1-(4-(4-Cyanophenyl)thiazol-2-yl)-3-(4-methoxyphenyl)-5-(2-(4-chlorophenyl)pyrimidin-5-yl)-2-pyrazoline]
inhibition at 100 µM [1]: 27 to 53%

COc1ccc(C2=NN(c3nc(-c4ccc(C(F)(F)F)cc4)cs3)C(c3cnc(-c4ccc(Cl)cc4)nc3)C2)cc1 (centres unmarked) [BP-14, 1-(4-(4-Trifluoromethylphenyl)thiazol-2-yl)-3-(4-methoxyphenyl)-5-(2-(4-chlorophenyl)pyrimidin-5-yl)-2-pyrazoline]
inhibition at 100 µM [1]: 27 to 53%

Cc1ccc(C2=NN(c3nc(-c4ccc(Cl)cc4)cs3)C(c3ccc(F)cc3)C2)cc1C (centres unmarked) [Compound 1]
IC50 [4]: 0.07 µM
IC50 [5, 8]: 0.06 µM

COc1ccc2nc(Cl)c(C3CC(c4ccc(C)cc4)=NN3c3nc(-c4ccc(F)cc4)cs3)cc2c1 (centres unmarked) [Compound 2]
IC50 [4]: 0.227 µM
IC50 ([5]; ref 32 (2), 34 (4, 5)): 0.0318 µM

N#Cc1ccc(-c2csc(N3N=C(c4ccc(N5CCOCC5)cc4)CC3c3ccc(Cl)cc3)n2)cc1 (centres unmarked) [Compound 3]
IC50 [4]: 8.05 µM
IC50 [6]: 10.8 µM
IC50 [5, 8]: 4.34 µM

CCOC(=O)c1sc(N2N=C(c3ccc(Cl)cc3Cl)CC2c2ccc(OC)cc2)nc1C (centres unmarked) [Compound 4]
IC50 [6]: 4.22 µM
IC50 ([5]; ref 32 (2), 34 (4, 5)): 0.0407 µM

COc1ccc(C2CC(c3ccc(Cl)cc3Cl)=NN2c2nc(C)c(C(=O)Nc3ccccc3)s2)cc1OC (centres unmarked) [Compound 5]
IC50 [6]: 2.92 µM
IC50 ([5]; ref 32 (2), 34 (4, 5)): 0.0325 µM

COc1ccc(C2CC(c3ccc(OC)c(OC)c3)=NN2c2nc(-c3ccccc3)cs2)cc1 (centres unmarked) [Compound 6]
IC50 [4]: 7.21 µM
IC50 [5, 8]: 0.009 µM

Clc1ccc(C2CC(c3ccc4ccccc4c3)=NN2c2nc(-c3ccc(Br)cc3)cs2)cc1 (centres unmarked) [Compound 7]
IC50 [6]: 9.51 µM
EGFR inhibition [5]: 58%

CCc1nnc2c(Nc3ccc(C(=O)/C=C/c4ccc(OC)cc4)cc3)nc3ccccc3n12 [Compound 8]
IC50 [4]: 8.23 ± 0.25 µM
IC50 [5, 8]: 0.083 ± 0.04 µM

Cn1c(=O)c2[nH]c(SCC(=O)Nc3ccc(C(=O)/C=C/c4ccc(Cl)cc4)cc3)nc2n(C)c1=O [Compound 9]
IC50 [4]: 1.3 ± 0.9 µM
IC50 [6]: 1.8 ± 0.7 µM

C=CCn1c(SCC(=O)Nc2ccc(C(=O)/C=C/c3ccc(Cl)cc3)cc2)nnc1-c1cc(-c2ccccc2)nc2ccccc12 [Compound 10]
IC50 [4]: 3.3 ± 0.08 µM
IC50 [6]: 3.6 ± 0.05 µM
IC50 [5, 8]: 1.3 ± 1.2 µM

COc1ccc(C(=O)/C=C/c2cnc(-c3ccc(Cl)cc3)nc2)cc1OC [Compound 11]
IC50 [4]: 6.7 ± 1.02 µM
IC50 [6]: 20.5 ± 2.7 µM
EGFR inhibition [5]: 46%

Cc1ccc(C2=NN(C(N)=S)C(c3cnc(-c4ccc(Cl)cc4)nc3)C2)cc1 (centres unmarked) [Compound B-6, 3-(4-Methylphenyl)-5-(2-(4-chlorophenyl)pyrimidin-5-yl)-1-thiocarbamoyl-2-pyrazoline]
inhibition at 100 µM [1]: 79%
IC50 [1]: 6.52 ± 0.97 µM
IC50 [2]: 15.1 ± 2.85 µM
SI (Selectivity Index) ([2]; IC50 for PBMC/IC50 for Jurkat cell line): 7.49
reduction of A549 cell viability [3]: 44%
IC50 [3]: > 100 µM
IC50 [7]: 113 ± 15.1 µM

COc1ccc(C2=NN(C(N)=S)C(c3cnc(-c4ccc(Cl)cc4)nc3)C2)cc1 (centres unmarked) [Compound B-7, 3-(4-methoxyphenyl)-5-(2-(4-chlorophenyl)pyrimidin-5-yl)-1-thiocarbamoyl-2-pyrazoline]
inhibition at 100 µM [1]: 39%
reduction of A549 cell viability [3]: 35%

CS(=O)(=O)CCNCc1ccc(-c2ccc3ncnc(Nc4ccc(OCc5cccc(F)c5)c(Cl)c4)c3c2)o1 [Lapatinib, lapatinib, reference compound]
IC50 [7]: 11 ± 2.47 µM
